Measured values published in ChEMBL document CHEMBL1139300, “Identification of a small molecule beta-secretase inhibitor that binds without catalytic aspartate engagement” (Bioorg Med Chem Lett, 2009).

What follows are compounds tested against Beta-secretase 1 (Homo sapiens, UniProt P56817) (assay: Inhibition of BACE1).
Beta-secretase 1, sequence (P56817 whole entry): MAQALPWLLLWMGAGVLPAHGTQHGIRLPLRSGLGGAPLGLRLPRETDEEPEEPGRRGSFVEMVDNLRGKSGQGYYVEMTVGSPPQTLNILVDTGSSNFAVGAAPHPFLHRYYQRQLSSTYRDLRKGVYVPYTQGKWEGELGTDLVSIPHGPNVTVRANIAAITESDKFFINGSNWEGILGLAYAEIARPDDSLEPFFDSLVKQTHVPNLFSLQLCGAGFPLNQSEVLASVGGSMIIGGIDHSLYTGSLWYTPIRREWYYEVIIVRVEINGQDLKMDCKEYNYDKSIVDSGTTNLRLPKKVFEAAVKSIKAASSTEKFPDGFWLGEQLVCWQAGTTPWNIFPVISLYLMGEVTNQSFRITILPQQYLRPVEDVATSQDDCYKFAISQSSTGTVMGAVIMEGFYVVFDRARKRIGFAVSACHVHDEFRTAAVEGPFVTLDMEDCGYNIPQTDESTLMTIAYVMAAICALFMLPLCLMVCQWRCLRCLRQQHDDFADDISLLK

Row | Compound | IC50 [µM]
1 | CC(=O)Nc1cc(Nc2cc(-c3ccccc3)ncn2)ccc1C | > 600
2 | CS(=O)(=O)Nc1cccc(Nc2cc(-c3ccccc3)ncn2)c1 | 400
3 | COc1ccc(Nc2cc(-c3ccccc3)ncn2)cc1NS(C)(=O)=O | 69
4 | Cc1ccc(Nc2cc(-c3ccccc3N(C)C)ncn2)cc1NS(C)(=O)=O | 317
5 | Cc1ccc(Nc2cc(-c3ccc4c(c3)OCCO4)ncn2)cc1NS(C)(=O)=O | 21
6 | C=CCc1ccc(Nc2cc(-c3ccccc3)ncn2)cc1NS(C)(=O)=O | 570
7 | Cc1ccc(Nc2cc(-c3ccc(N(C)C)cc3)ncn2)cc1NS(C)(=O)=O | 15
8 | Cc1ccc(Nc2cc(-c3ccccc3)ncn2)cc1N(C)S(C)(=O)=O | > 1600

Second part, the compound after the results:

Row | IC50 [µM] | Compound
9 | > 600 | O=[N+]([O-])c1cc(Nc2cc(-c3ccccc3)ncn2)ccc1Br
10 | 16 | CS(=O)(=O)Nc1cc(Nc2cc(-c3ccccc3)ncn2)ccc1Cl
11 | 110 | CS(=O)(=O)Nc1cc(Nc2cc(-c3ccccc3)ncn2)ccc1F
12 | > 600 | Nc1cc(Nc2cc(-c3ccccc3)ncn2)ccc1Br
13 | > 600 | CS(=O)(=O)Nc1cc(Nc2cc(-c3ccccc3)ncn2)ccc1-c1ccccc1
14 | 219 | Cc1ccc(Nc2cc(-c3ccccc3C)ncn2)cc1NS(C)(=O)=O
15 | 24 | Cc1ccc(Nc2cc(-c3ccccc3)ncn2)cc1NS(C)(=O)=O
16 | 30 | CS(=O)(=O)Nc1cc(Nc2cc(-c3ccccc3)ncn2)ccc1Br
17 | 37 | Cc1ccc(Nc2cc(-c3ccc(CCCO)cc3)ncn2)cc1NS(C)(=O)=O
18 | 19 | Cc1ccc(Nc2cc(-c3ccc(-c4ccccc4)cc3)ncn2)cc1NS(C)(=O)=O
